According to patent US20080242594A1, “Methods for Promoting Stem Cell Proliferation and Survival” (priority 2005, published 2008):

Key:
[1] = tested on: mouse fetal central nervous system stem cell cultures; assay: Survival of fetal CNS stem cell cultures with insulin and Dll4; assay type: cell-based
Procedure: As there was a tight correlation between the Notch survival pathway and Hes3, it was investigated as to whether Hes3 is a mediator of the Notch pro-survival signalling. It was determined that both insulin and Notch activation promote the survival of foetal and adult neural stem cell cultures and their effects are additive (Tables 8-9).

nucleostemin, SHH = assay: Nucleostemin and SHH protein expression in CNS stem cells; assay type: cell-based, mouse
Excerpt: The interest in stem cell self-renewal mechanisms prompted analysis of potential down-stream components of the Notch/STAT3-Ser727 (Notch/sSTAT) pathway. Nucleostemin is a p53-binding protein expressed in self-renewing CNS stem cells and cancer cells (Tsai et al., J Neurosci 20:3725-35, 2000; Tsai et al., J Cell Biol 168:179-84, 2005). Sonic Hedgehog (SHH) is a protein with functions in fate specification and stem cell survival in the fetal and adult CNS (Palma et al., Development 132:335-44, 2005).
There are two forms of mRNA encoded by the Hes3 gene, Hes3a and Hes3b.

H1 hES cells = assay: hES colony number formation, H1; assay type: cell-based, human; details: H1 line
Excerpt: (§1) The human ES cell lines HSF-6 (University of California, San Francisco; NIH # UC06, Passage 38-120) and H1 and H9 (WiCell Research Institute, NIH # WA01 and […]) were maintained on mouse embryonic fibroblasts (MEF) according to the suppliers' protocols. Immunocytochemistry and FACS analysis for the expression of Oct4 and SSEA4 and SKY karyotyping established that the starting cells are undifferentiated and have a normal set of chromosomes. For single cell survival experiments, hES colonies were harvested after treatment with 1.5 mg/ml collagenase type IV (Invitrogen), separated from the MEF feeder cells by repeated washing by gravity, gently triturated to break up colonies into small aggregates, further dissociated into a single cell solution by trypsination (0.05% trypsin/0.04% EDTA) and transferred on MEF feeder cells at a density of 10000 cells/ml. Oct-4 positive colonies were counted six days after plating. […]
(§2) The pro-survival effects of activation of Notch and inhibition of JAK was tested on HSF-6 (NIH code UC06, http://escell.ucsf.edu), H1 (NIH code WA01, www.wicell.org) and H9 (NIH code WA09, www.wicell.org) hES cells. Singly dissociated hES cells were plated on mouse embryo fibroblasts (MEFs), treated daily for one week and colony numbers counted. […]

H9 hES cells = assay: hES colony number formation, H9; assay type: cell-based, human; details: H9 line
Excerpt: as §1, §2

p38 MAP kinase = p38 MAP kinase phosphorylation immunoblot in CNS stem cells; assay type: cell-based, mouse
Excerpt: A candidate was p38MAP kinase, known to act downstream of JAK in many cells including CNS stem cells. p38 kinase has been implicated both in differentiation and cell cycle regulation, and recently, inhibition of p38 kinase enabled the proliferation of adult mammalian […] (Engel et al., Genes Dev, 2005). Inhibition of JAK blocked CNTF induced phosphorylation of p38 (FIG. 2g).

HSF6 hES cells = assay: hES self-renewal over 3 passages; assay type: cell-based, human; details: 3 passages (3 weeks), daily treatments
Excerpt: To assess whether JAK inhibition was consistent with self-renewal of hES cells, HSF6 cells were continuously exposed to the JAK inhibitor by daily additions for three passages as single cells (three weeks) and analyzed for expression of antigens that distinguish the undifferentiated and differentiated states. The cells exposed to the drug, like the FGF2 controls, had normal morphology, were positive for Oct3/4, SSEA4, Tra-1-60, and Tra-1-81, and negative for SSEA1 (FIG. 5f, FIG. 11). To assess their ability to differentiate into neural precursors, embryoid bodies (EBs) were generated and many Sox1+/Nestin+ cells obtained (FIG. 11). Finally, to assess that the cells retained their ability to generate TH+ neurons, direct differentiation protocols were performed; a high proportion of TH+/TUJ1+ cells were obtained (FIG. 5g).

In the case of “Delta-4: soluble Notch ligand Delta-4 (1389-D4) from R&D”, the “Cell #” value [1] is reported as “High” and the “nucleostemin and SHH protein expression” value (nucleostemin, SHH) is reported as “induced nucleostemin and SHH protein expression”.
With `CC(C)(C)c1nc2c3ccc(F)cc3c3c(=O)[nH]ccc3c2[nH]1` [JAK Inhibitor, 2-(1,1-Dimethylethyl)-9-fluoro-3,6-dihydro-7H-benz[h]-imidaz[4,5-f]isoquinolin-7-one] the colony number formation (H1 hES cells) was 448.5%±57.4, the colony number formation (H9 hES cells) was 347.6%±59.5 and the “phosphorylation of p38 MAP kinase at Thr180/Tyr182” value (p38 MAP kinase) was “reduced the levels of phosphorylation”. The “morphology and antigenic profile” value (HSF6 hES cells) was “retained normal morphology and antigenic profile of undifferentiated hES cells”.
